# Data reported in patent US20220175771A1, “CANCER TREATMENT MODALITIES” (priority 2017, published 2022).
# Experiments:
# Oral bioavailability = details: in vivo
# [1] = system: SMARCA2/SMARCA4 dual loss NSCLC cell line xenografts; assay: NSCLC xenograft model in vivo; details: ~250 mg/kg body weight
compound,measurement,setting,value
"CCN(c1cc(-c2ccc(CN3CCOCC3)cc2)cc(C(=O)NCc2c(C)cc(C)[nH]c2=O)c1C)C1CCOCC1 [Compound 44, tazemetostat]",oral bioavailability,Oral bioavailability,orally bioavailable
same,tumor growth inhibition,[1]; dual loss xenografts compared with SMARCA4 single loss xenografts,more prominent
same,tumor regression,[1]; in two of the four SMARCA2/SMARCA4 dual loss cell lines,tumor regression was observed
